Data published in PMC9027599, “Secondary Metabolites in Basil, Bio-Insecticide, Inhibition Effect, and In Silico Molecular Docking against Proteolytic Enzymes of the Red Palm Weevil (Rhynchophorus ferrugineus)” (Plants, 2022).

What was measured:
cysteine protease = experiment: Cysteine proteinase activity, Z-Phe-Arg-MNA (in vitro); assay type: biochemical, Rhynchophorus ferrugineus; conditions: fourth instar larvae midgut homogenate
Protocol: The activity of cysteine proteinase was determined in the fourth midgut instar larval homogenate of R. ferrugineus using the substrate Z-Phe-Arg-MNA [1]. Ten larvae were carefully removed, dissected, and rinsed repeatedly with NaCl solution (0.9% (w/v). The midgut instar was homogenized in protease assay buffer (500 µL) [5 mM DTT, 50 mM HEPS (N-2-Hydroxyethyl piperazin-N’-2-ethanesulfonic acid), pH 8.0, and 0.1 percent Triton X-100]. The reaction mixture was centrifuged for 30 min at 5000 rpm (Sigma 3k30 cooling centrifuge). The supernatant was utilized to determine the overall activity of proteolytic enzymes and the protein content. The supernatant (10 µL) was incubated for 30 min at 37 °C, and the volume was adjusted to 60 µL using assay buffer (pH 8) before adding 100 µL of substrate (0.5 mM). Prior to adding the substrate, 10 µL enzyme samples were pre-incubated with iodoacetic acid for 10 min. After 60 min at 37 °C of mixture incubation, the reaction was halted with the addition of 1.5 mL mersalyl (5 mM), 0.02 mg/mL fast garnet reactive solution, and 2% Tween 20. The reaction was centrifuged (at 5000 rpm, 6 min), then the absorbance was determined (at 520 nm). The activity of cysteine proteinase was measured using an ELISA quick plate reader at the OD520/60 min/mg of midgut protein. As a blank, a test mixture devoid of enzyme was used. […] The fourth homogenates of midgut larval were produced as reported before in the experiment for determining enzyme activity. As previously disclosed, the inhibitory experiment was performed using a microplate assay. A series of inhibitor concentrations was created to determine the inhibitor’s maximal inhibitory effect. Leupeptin concentrations of 0.01, 0.05, 0.1, and 1.0 mM, PMSF concentrations of 0.1, 1.0, 10, and 50 mM, TLCK and TPCK concentrations of 0.01, 0.05, 0.1, 1, 50, and 100 mM, EDTA concentrations of 0.1, 1, 10, 50, and 100 mM, and iodoacetic acid concentrations of 0.01, 0.05, 0.1, and 1 mM.
As a control, an assay combination devoid of inhibitors was utilized. The absorbance of the enzymes was determined using an ELISA plate quick reader at various wavelengths. The percentage activity of the control enzyme for each inhibitor was evaluated for each enzyme. Protease activity was assayed in vivo in the R. ferrugineus fourth midgut larval instars, which were treated with 1, 10, 50, 100, 500, 1000, and 5000 mg/L of extracts or compounds, measured as described above. Larvae were exposed for 24 h to leaf discs treated with extract and compounds.

total proteases [1] = experiment: Total proteolytic activity of fourth instar midgut homogenate, azocasein (in vitro); assay type: biochemical, Rhynchophorus ferrugineus; conditions: fourth instar larvae midgut homogenate
Protocol: (§1) The Lowry technique was used to determine the protein concentrations. Total proteolytic activity was determined in the fourth midgut instar larval (lab strain) homogenate of R. ferrugineus with azocasein in accordance with […] et al. […] [70]. […] Using a Sigma 3k30 cooling centrifuge, reserve homogenates prepared in a previous stage were spun at 5000 rpm for 30 min. Estimates of protein content and total proteolytic enzyme activity were made using the supernatants. The supernatant (10 μL) was incubated at 37 °C for 20 min, and the volume was adjusted to 60 μL using an assay buffer (pH 8), before adding azocasien (200 μL, 2% (w/v)). […] Following that, to activate the reaction, the substrate was introduced 20 min for Leupeptin, so the reaction was halted after 180 min at 37 °C with 300 μL of cool tri-chloroacetic acid (TCA) (10% (v/v). The mixture was centrifuged for 20 min at 5000 rpm (Sigma 3k30 cooling centrifuge). […] To learn more about the proteases found in homogenate preparations of R. ferrugineus fourth midgut larval instars, inhibitors from many different types of mechanisms were used. […] As a control, an assay combination devoid of inhibitors was utilized. The absorbance of the enzymes was determined using an ELISA plate quick reader at various wavelengths. The percentage activity of the control enzyme for each inhibitor was evaluated for each enzyme. […] Larvae were exposed for 24 h to leaf discs treated with extract and compounds.

total proteases [2] = experiment: Total protease activity of midgut from larvae treated 24 h (in vivo); set-up: species or system Rhynchophorus ferrugineus; conditions: midgut of fourth instar larvae treated for 24 h
Protocol: as §1

[3] = tested on: R. ferrugineus fourth larvae; experiment: Topical application (contact insecticide) on larvae; assay type: in vivo, Rhynchophorus ferrugineus; conditions: 4th larvae, probit analysis, 95% confidence limits in brackets
Protocol: The R. ferrugineus adult and larvae were acquired from an insect breeding lab at King Faisal University’s Date Palm Research Center of Excellence and grown utilizing sugarcane stem long pieces. The extracts activity against larvae was determined by using topical application method with storing larvae at 4–5 °C for 5 min. Previous serial concentrations of extract (10 µL) were applied to the dorsum of each larvae using a hand-operated micro-applicator (Burkard Manufacturing Co., Ltd., Hertfordshire, UK with a 50-ll micro-syringe (MS-N50; Ito Corp., Shizuoka, Japan). Each larva was feeding on 10 cm stem pieces of long sugarcane, with 5 larvae/box with three replicates. After topical administration, larval mortality was determined after 24, 48, 72, and 96 h to determine the LD50. Adults were tested for antifeedant effect determined using ten-centimeter-long sections of sugarcane stem divided into equal longitudinal halves. Pieces of long sections of sugarcane stem with area ~32.2 cm^2 were dipped for ten seconds in the previous serial concentration of extract (10 mL) and, then, dried in room temperature air. […] Each package received a replacement pair (male and female). Each treatment was replicated ten times. After 24, 48, 72, and 96 h, feeding observations were assayed.
Finney states that the statistical analysis and probit analysis were conducted using the SPSS 25.0 program (Statistical Package for Social Sciences, Armonk, NY, USA). Chemical components were determined by PCA using SPSS 25.0 program and presented using XLSTAT 2018.1. PCA is a clustering technique that is used to determine the relationships between samples. […] We did a mortality against dosage regression and converted the resultant median dose to an LC50 value (µg/mL). The range of LC50 was calculated with a 95 percent confidence interval using least-squares. We conducted a one-way analysis of variance on the enzyme activity data (ANOVA). The Student–Newman–Keuls (SNK) test was applied with separate means, and differences at p ≤ 0.05 were considered significant.

Compound	IC50 against cysteine protease (in vitro) (cysteine protease) [µg/mL]	IC50 against total proteases (in vitro) (total proteases [1]) [µg/mL]	IC50 against total proteases (in vivo) (total proteases [2]) [µg/mL]	LD50 [3]
dicaffeoyl-tartaric acid [Chicoric acid]	81.2	63.1	146.2	10.23 (9.87–10.94) µg/Larvae
C[C@@H]1O[C@@H](OC[C@H]2O[C@@H](Oc3c(-c4ccc(O)c(O)c4)oc4cc(O)cc(O)c4c3=O)[C@H](O)[C@@H](O)[C@@H]2O)[C@H](O)[C@H](O)[C@H]1O [Quercetin-3-O-rutinoside]	53.6	82.6	286.4	16.9 (15.1–17.6) µg/Larvae
O=C(/C=C/c1ccc(O)c(O)c1)O/C=C\c1ccc(O)c(O)c1 [Nepetoidin B]	63.3	102.4	179.4	11.9 (11.1–12.3) µg/Larvae
O=C(/C=C/c1ccc(O)c(O)c1)O[C@H](Cc1ccc(O)c(O)c1)C(=O)O [Rosmarinic acid]	67.8	109.6	186.2	12.4 (11.8–12.7) µg/Larvae
O=C(O)C[C@H](C(=O)O)[C@@H](O)C(=O)O [Isocitric acid]	119.1	143.3	486.3	23.9 (21.1–24.6) µg/Larvae
COc1ccc(-c2cc(=O)c3c(O)c(OC)c(OC)cc3o2)cc1 [Salvigenin, 5-Hydroxy-6,7,4′-trimethoxyflavone]	89.6	72.4	164.8	11.4 (10.4–11.8) µg/Larvae
